Calls of active or inactive are those of the source.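 The calls were made as follows: active = compounds giving half or more protection of infected cells from virus-caused growth loss, again on retest; inactive = the rest.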

For the assay, the system named is CEM cells HIV-1 protection, formazan growth assay. As to the kind of experiment: NCI AIDS Antiviral Assay. Conditions: for IC50: measured here: growth of uninfected CEM cells. The essentials:
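Human CEM cells, uninfected and HIV-1-infected, received five drug concentrations, and growth was read by soluble formazan assay. Compounds giving at least 50% protection were retested; reproducible 100% protection defined confirmed active.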

Usually EC50 stands for the concentration at which the effect is half-maximal. By IC50 is commonly meant the concentration that gives 50% inhibition. Read a low IC50 as higher potency. As to `O=S(=O)(c1ccc(Cl)cc1)S(=O)(=O)c1ccc(Cl)cc1`, the EC50 was 10.7 µM and the IC50 was found to be 26.9 µM. Consider `O=C(O)CCNS(=O)(=O)c1ccc(NC(=O)c2ccccc2)cc1`, for which the outcome was inactive. The same measure, in the same setting: under `C=C[C@@]1(O)CC[C@@H](C(C)(C)C)C[C@H]1CC(=C)Br` stands “inactive”. As to `Cc1cccc(Nc2nc3ccccc3nc2NS(=O)(=O)c2ccccc2)c1`, the EC50 was above 100 µM and the IC50 was found to be 15.5 µM. Turning to `Cc1cc([N+](=O)[O-])c(C)c2c1[nH]c1ccc(/C(CCC3CCCC3)=N\N)cc12`, the EC50 is above 10 µM and the IC50 is above 10 µM.

Consider `O=C(CC(O)(C(F)(F)Cl)C(F)(F)Cl)CC(O)(C(F)(F)Cl)C(F)(F)Cl`, for which the outcome was inactive.

Take `O=C1N/C(=C\[N+](=O)[O-])c2ccccc21`: the EC50 was above 501 µM and the IC50 worked out at 263 µM. Regarding `Cc1cccnc1NC(=O)NCCCl`, the EC50 is above 200 µM and the IC50 is above 200 µM. On to `CCCCCCCCCCCCOC(=N)N(C)C`, for which the EC50 is above 200 µM and the half-inhibitory concentration (IC50) turned out to be 2 µM. As for `CC(C)CCCC(C)[C@H]1CCC2[C@H]3C(CC[C@@]21C)[C@@]1(C)CCC=C[C@]12C[C@@H]2[C@@H]3O` (stereo partly specified), the result was inactive.

On to `Cc1ccnc(NS(=O)(=O)c2ccc(NC(=O)Nc3ccc(Cl)c(C(F)(F)F)c3)cc2)n1`, for which the outcome was inactive. Take `O=c1[nH]cnc2c1ncn2CCCCO`: the outcome was inactive. As to `Nc1ccc(C(=O)NN2C(=O)C(Cl)C2c2ccc(O)cc2)cc1` (stereo unspecified), the EC50 was above 200 µM and the 50% inhibitory concentration (IC50) is 9.12 µM. For the compound `COc1ccc2c(c1)OC1c3ccccc3OCC21` (stereo unspecified), the result was inactive. `CN1C(=S)Nc2ncn(C)c2S1(=O)=O`: the EC50 is above 81.3 µM and the 50% inhibitory concentration (IC50) was above 81.3 µM. As to `C=C1C(OC(=O)C(O)C(c2ccccc2)N(C)C)C[C@H](OC(C)=O)[C@]2(C)C1C(OC(C)=O)[C@@H]1CC(OC(C)=O)C(C)=C([C@@H](OC(C)=O)C2OC(C)=O)C1(C)C` (stereo partly specified), the outcome was inactive. On to `CSc1nc(Br)nc2c1ncn2C1CC(Oc2ccc(C)cc2)C(COc2ccc(C)cc2)O1` (stereo unspecified), for which the EC50 was above 200 µM and the half-inhibitory concentration (IC50) was 79.4 µM. Take `Cc1nc2c(Cl)cc(Cl)cc2c(Cl)c1CCCl`: the EC50 was above 200 µM and the concentration for half-maximal inhibition (IC50) is above 200 µM.

Take `Nc1nc2c(ncn2COCCO)c(=O)[nH]1`: the EC50 is above 794 µM and the IC50 was above 794 µM. On to `COc1ccc(N2C(=O)C3c4[nH]c5c(C)cccc5c4C4CCC(C(C)C)CC4C3C2=O)cc1` (stereo unspecified), for which the EC50 is above 200 µM and the IC50 turned out to be 23.4 µM. For `COC[C@H](C)N=CN1CCc2ccccc2C1`, in that order: above 1070 µM and above 1070 µM. Consider `Cc1cn(C2CC(N)C(CN)O2)c(=O)[nH]c1=O` (stereo unspecified), for which the EC50 was above 200 µM and the 50% inhibitory concentration (IC50) was above 200 µM. Take `CN(C)CC(O)CNC(=O)Nc1ccccc1` (stereo unspecified): the EC50 was above 200 µM and the half-inhibitory concentration (IC50) is above 200 µM. Consider `N#Cc1n[nH]n(-c2ccccc2)c1=O`, for which the EC50 was above 200 µM and the IC50 is above 200 µM. `COc1ccc(C(CC(=O)c2ccc3c(c2)OCO3)c2c(O)c3ccccc3oc2=O)cc1OC` (stereo unspecified): the EC50 was above 200 µM and the 50% inhibitory concentration (IC50) was determined as 75.9 µM. As for `COC(=O)C1(Cc2ccc3c(c2)CCC3)Cc2ccccc2C1`, the EC50 is above 200 µM and the IC50 was 35.5 µM. On the same counts, the results for `C[C@@H]1C(=O)OCC2=C3C[C@@H](CC[C@@]3(C)C=CC2=O)[C@H](C)C(=O)OCC2=C3C[C@H]1CC[C@@]3(C)C=CC2=O` are above 24.5 µM and 21.4 µM. Take `Cc1nc(=O)n2c(c1C(=O)Nc1ccc(Cl)cc1)NCC2`: the outcome was inactive.

`O=C(Nc1nc2ccccc2n1Cc1ccccc1)C(=O)NC12CC3CC(CC(C3)C1)C2`: the EC50 is above 43.7 µM and the half-inhibitory concentration (IC50) was above 43.7 µM. For the compound `NS(=O)(=O)c1ccc(NC2=CC(=O)C(=O)c3ccccc32)cc1`, the EC50 was above 30.2 µM and the half-inhibitory concentration (IC50) was above 30.2 µM.

Values taken from PubChem BioAssay AID179 (DTP/NCI, 2004).
